Test results as given in patent publication US8455399B2, “N-(4-perfluoroalkyl-phenyl)-4-triazolyl-benzamides as insecticides” (Syngenta Crop Protection LLC, priority 2009, dated 2013).

Experiments:
Assay type in all cases: in vivo
Spodoptera littoralis = Spodoptera littoralis (Egyptian cotton leafworm) leaf disc spray test; details: foliar, 72 h, 200 ppm sprayed on cotton leaf discs, 5 L1 larvae, mortality, feeding behavior, growth regulation 3 days after treatment
Source text: Spodoptera Littoralis (Egyptian Cotton Leafworm): Cotton leaf discs were placed on agar in a 24-well microtiter plate and sprayed with test solutions at an application rate of 200 ppm. After drying, the leaf discs were infested with 5 L1 larvae. The samples were checked for mortality, feeding behavior, and growth regulation 3 days after treatment (DAT).

Heliothis virescens = Heliothis virescens (tobacco budworm) egg/artificial diet test; details: 96 h, 200 ppm (concentration in well 18 ppm), eggs 0-24 h old on artificial diet, egg mortality, larval mortality, growth regulation after 4 days
Experimental: Heliothis Virescens (Tobacco Budworm): Eggs (0-24 h old) were placed in 24-well microtiter plate on artificial diet and treated with test solutions at an application rate of 200 ppm (concentration in well 18 ppm) by pipetting. After an incubation period of 4 days, samples were checked for egg mortality, larval mortality, and growth regulation.

Plutella xylostella = Plutella xylostella (diamond back moth) artificial diet test; details: 144 h, 200 ppm (concentration in well 18 ppm), L2 larvae, larval mortality and growth regulation after 6 days
Experimental: Plutella Xylostella (Diamond Back Moth): 24-well microtiter plate (MTP) with artificial diet was treated with test solutions at an application rate of 200 ppm (concentration in well 18 ppm) by pipetting. After drying, the MTP's were infested with L2 larvae (7-12 per well). After an incubation period of 6 days, samples were checked for larval mortality and growth regulation.

Diabrotica balteata = Diabrotica balteata (corn root worm) artificial diet test; details: 120 h, 200 ppm (concentration in well 18 ppm), L2 larvae, larval mortality and growth regulation after 5 days
Experimental: Diabrotica Balteata (Corn Root Worm): A 24-well microtiter plate (MTP) with artificial diet was treated with test solutions at an application rate of 200 ppm (concentration in well 18 ppm) by pipetting. After drying, the MTP's were infested with L2 larvae (6-10 per well). After an incubation period of 5 days, samples were checked for larval mortality and growth regulation.

Thrips tabaci = Thrips tabaci (onion thrips) leaf disc spray test; details: foliar, 168 h, 200 ppm sprayed on sunflower leaf discs, population of mixed ages, mortality after 7 days
Experimental: Thrips Tabaci (Onion Thrips): Sunflower leaf discs were placed on agar in a 24-well microtiter plate and sprayed with test solutions at an application rate of 200 ppm. After drying, the leaf discs were infested with an […] population of mixed ages. After an incubation period of 7 days, samples were checked for mortality.

Tetranychus urticae = Tetranychus urticae (two-spotted spider mite) leaf disc spray test; details: foliar, 192 h, 200 ppm sprayed on bean leaf discs, mite populations of mixed ages, egg, larval and adult mortality 8 days later
Source text: Tetranychus Urticae (Two-Spotted Spider Mite): Bean leaf discs on agar in 24-well microtiter plates were sprayed with test solutions at an application rate of 200 ppm. After drying, the leaf discs are infested with mite populations of mixed ages. 8 days later, discs are checked for egg mortality, larval mortality, and adult mortality.

Measured: pest or weed control at 200 ppm

CCc1cc(C(F)(C(F)(F)F)C(F)(F)C(F)(F)F)cc(C)c1NC(=O)c1ccc(-n2cncn2)c(NC(=O)c2ccc(F)cc2Cl)c1 (stereo not drawn) [D4, 3-(2-Chloro-4-fluorobenzoylamino)-N-[2-ethyl-4-(1,2,2,3,3,3-hexafluoro-1-trifluoromethylpropyl)-6-methylphenyl]-4-(1,2,4-triazol-1-yl)benzamide]
≥ 80%: all assays above

CCc1cc(C(F)(C(F)(F)F)C(F)(F)C(F)(F)F)cc(C)c1NC(=O)c1ccc(-n2cncn2)c(NC(=O)c2ccc(F)cc2)c1 (stereo not drawn) [D6, 3-(4-Fluorobenzoylamino)-N-[2-ethyl-4-(1,2,2,3,3,3-hexafluoro-1-trifluoromethyl-propyl)-6-methylphenyl]-4-(1,2,4-triazol-1-yl)benzamide]
≥ 80%: all assays above

O=C(Nc1c(Br)cc(C(F)(C(F)(F)F)C(F)(F)C(F)(F)F)cc1Br)c1ccc(-n2cncn2)c(NC(=O)c2ccc(F)cc2Cl)c1 (stereo not drawn) [D9, 3-(2-Chloro-4-fluorobenzoylamino)-N-[2,6-dibromo-4-(1,2,2,3,3,3-hexafluoro-1-trifluoromethylpropyl)phenyl]-4-(1,2,4-triazol-1-yl)benzamide]
≥ 80%: all assays above

Cc1c(C(=O)Nc2cc(C(=O)Nc3c(Br)cc(C(F)(C(F)(F)F)C(F)(F)C(F)(F)F)cc3Br)ccc2-n2cncn2)cccc1[N+](=O)[O-] (stereo not drawn) [D10, 3-(2-Methyl-3-nitrobenzoylamino)-N-[2,6-dibromo-4-(1,2,2,3,3,3-hexafluoro-1-trifluoromethylpropyl)phenyl]-4-(1,2,4-triazol-1-yl)benzamide]
≥ 80%: all assays above
